Test results taken from US8008433B2, “Methods for preventing or treating bone disorders” (Metabolic Pharmaceutical Limited, priority 2004, dated 2011).
Where a SMILES comes first, the peptide text is derived from it. Bridges are numbered along the chain shown (N, C = ends).

Assays:
C57B1/6J (Ob/Ob) mouse = conditions: from AU 693478; cited from earlier work
[1] = tested on: aged rat model for post-menopausal osteoporosis; assay: Vertebral compression of L5 (trabecular bone); type: in vivo, Sprague-Dawley rats (Rattus Norvegicus); conditions: slow release pellet 0.01 mg/day, 12 weeks
Protocol: Ninety-six aged Sprague-Dawley rats were randomly assigned to one of eight groups. The first two groups were sham operated. Group 1 was kept as a Sham control and Group 2 was treated with 2.5 mg/kg/day of recombinant human GH (rhGH) (BresaGen). The remaining six groups arrived from Harlan, ovariectomized (OVX). This surgery was performed approximately 8 days before the commencement of treatment. Group 3 was left as a control for the OVX model. Group 4 was given a treatment of 2.5 mg/kg/day of rhGH. Group 5 was treated with a low dose of AOD peptide (LAOD) 0.75 mg/kg/day and Group 6 was treated with a high dose of AOD peptide (HAOD) 2.0 mg/kg/day. […]
Statistical analysis was performed using statistical software, SPSS (version 11.0). Comparisons involving two groups were analyzed by independent student's t-test. Multiple comparisons were analyzed by one-way ANOVA analysis using the pairwise comparison Protected Fisher's Least Significant Difference (LSD) post hoc test. […]
Digital images were taken and image analysis software (ImageJ 1.28u, NIH) was used to determine the height and cross-sectional area of the vertebral body. […] While preloading the samples, the distance between the platens was measured using digital calipers. The gauge length was then determined by subtracting the height of the jig with the distance between the platens. […]

With `CC[C@H](C)[C@H](NC(=O)[C@H](CCCNC(=N)N)NC(=O)[C@H](CC(C)C)NC(=O)[C@@H](N)Cc1ccc(O)cc1)C(=O)N[C@H](C(=O)N[C@@H](CCC(N)=O)C(=O)N[C@H]1CSSC[C@@H](C(=O)NCC(=O)N[C@@H](Cc2ccccc2)C(=O)O)NC(=O)[C@H](CO)NC(=O)CNC(=O)[C@H](CCC(=O)O)NC(=O)[C@H](C(C)C)NC(=O)[C@H](CO)NC(=O)[C@H](CCCNC(=N)N)NC1=O)C(C)C` [AOD, Tyr Leu Arg Ile Val Gln Cys Arg Ser Val Glu Gly Ser Cys Gly Phe] (H-YLRIVQCRSVEGSCGF-OH; disulfide 7-14; N-terminus and C-terminus assumed) the solubility was greater than 1000 µg/mL.

In the case of “hGH 177-191: synthetic peptide corresponding to amino acid residues 177-191 of the human growth hormone sequence (LRIVQCRSVEGSCGF; UniProt P01241 203-217, looked up, fragment)”, the adipose tissue mass (C57B1/6J (Ob/Ob) mouse) is listed as “reduce” and the body weight gain (C57B1/6J (Ob/Ob) mouse) is listed as “reduce”.

With 17B-estradiol [Estrogen] the “strength and stiffness (vertebral compression L5), decrease caused by OVX” value [1] was “did not prevent a decrease” and the “stress and elastic modulus values (vertebral compression L5) compared to OVX” value [1] was “higher”.
